Data on three substances can be found in paper PMC3832545 (PLoS ONE, 2013).

One series relates to female and male rats. Conditions: supra-pharmacological doses, ref [47]; cited from earlier work. From the text: However, the in vitro ...
A short description of series [1]: Mouse C-peptide in plasma after sc injection in DIO-mice. Format: in vivo. The note with it: 600 nmol/kg sc, P<0.05. Here is the method: Before experiments were initiated, the systemic levels of mouse insulin were measured using a Rat/Mouse Insulin ELISA kit (Millipore Corp., Bilerica, MA, USA), according to manufacturer’s instructions. […] Mouse C-peptide was assayed with Rat/Mouse C-peptide 2 ELISA kit (Millipore), according to manufacturer’s instructions. […] Insulin X10 was measured in mouse plasma using a wash-LOCI assay, as also described recently. See Materials S1 for detailed information regarding these assays.
At termination of experiments whole blood was collected in EDTA-coated tubes (BD Biosciences) by cardiac puncture. Blood plasma was isolated by centrifugation for 10 min at 1500 rpm and thereafter stored at -80 °C until analysis. Mouse C-peptide was assayed with Rat/Mouse C-peptide 2 ELISA kit (Millipore) according to manufacturer’s instructions. […] In initial tests the sensitivity and specificity of the assay in mouse plasma was confirmed. […] After incubation for another 30 min at 21-22 °C chemiluminescence was measured in an Envision plate reader (Perkin Elmer). […] Finally 10 µl of streptavidin coated donor beads were added, incubated as above and immediately after this chemiluminescence was measured using an Envision plate reader. […]

The test system of another series is P-Akt (Ser473). Put plainly: Signalling in MC38 cells, Western blot P-Akt. In kind it is cell-based, mouse. The note with it: covers both Akt (Ser473) and p70S6K (Thr389). The method, then: MC38 cells (mouse cell line described by Corbett et al. (1975) and generously provided by Dr. Pnina Brodt, McGill University, Montreal, QC) and MCF-7 cells (ATCC, Manassas, VA, USA), were cultivated in DMEM medium containing 4.5 g/l glucose (Wisent Inc., Montreal, QC, Canada) supplemented with 10% (v/v) fetal bovine serum (FBS, Invitrogen) and 20 μg/ml gentamicin (Sandoz Canada, Boucherville, QC, Canada) (i.e., growth medium). Cells used in animal experiments were trypsinized, washed once in PBS and resuspended in PBS (4°C) at a concentration of 5.0 × 10^6 cells/ml and kept on ice until sc injection in the mice. For signalling experiments MC38 cells were cultivated in growth medium for two days until 80-90% confluent, cell cultures were then rinsed once in PBS (room temperature), and starvation medium (similar to growth medium, except it contained only 0.25% (v/v) FBS and no phenol red) was added for 3 h. […] Each signalling experiment comprised two replicate samples per treatment and three independent experiments were performed. […] Data describing IR and IGF-1R expression in various mouse tissues were analysed in a one-way ANOVA followed by pairwise comparisons between tissues using multiple t-test with Bonferroni correction.

For a further series, the system named is IGF-1 receptor (IGF-1R). Conditions: ref [10], [11]; cited from earlier work.
A further series relates to insulin receptor (IR). Conditions: cited from earlier work.
The conditions of series [2]: cited from earlier work. From the text: Further studies are needed to clarify if this effect is also observed during other experimental conditions. However, our in vivo data for ...
Series [3] relates to female Sprague Dawley rats. The note with it: rat, in vivo; cited from earlier work.

As for “IGF-1: recombinant human IGF-1 (Increlex, IPSEN Pharma GmbH)”, the “Incidence of mammary carcinoma and pheochromocytoma” value with female and male rats is listed as “increased the incidence”.
Consider human insulin [HI], for which the “Levels of C-peptide in plasma 0.5 h after treatment compared to >5 h” value in series [1] is reported as “significantly decreased”.
Take insulin analog B10Asp [X10]: the “Increase of phosphorylation of Akt (Ser473) and p70S6K (Thr389) compared to HI” value with P-Akt (Ser473) is on record as 35–90%. Moreover, the “Levels of C-peptide in plasma 0.5 h after treatment compared to >5 h” value in series [1] was “significantly decreased”. Besides, in the series with IGF-1 receptor (IGF-1R), the “Increase of binding affinity to the IGF-1 receptor (vs human insulin)” value is 3- to 5 fold. Moreover, the “Increase of binding affinity to the insulin receptor (vs human insulin)” value in the series on insulin receptor (IR) (ref [10], [11]) was 2 fold. Further, the “Off-rate from the IR compared to native human insulin” value in the series with insulin receptor (IR) (ref [12]) was “decreased off-rate”. Besides, the “Mitogenic potency relative to HI, some cell lines” value in series [2] (ref [10], [13], [46]) is given as 10 fold. In addition, the “Mitogenic potential relative to HI in vitro” value in series [2] (ref [14]) is recorded as 3–15 fold. Besides, the “Incidence of spontaneous mammary tumors” value in series [3] is reported as “increased the incidence”.
